According to patent publication US10441565B2, “Conjugate of memantine and arctigenin, and composition and use thereof” (Shenzhen Qingyaqirui Bio-Tech Co., Ltd., priority 2015, dated 2019):
Counter-ions that a name gives are not always drawn. One block for each compound: values may come before it.

How the values were obtained:
[1] = Pharmacokinetics in rats after gastric gavage, ATG concentration in plasma by LC-MS; assay type: in vivo, SD rats
Description: This test investigated the pharmacokinetics of arctigenin (ATG) and conjugate A04 in rats. The rats were administered by gastric gavage with ATG and A04, the whole blood sample was collected at various time points, the plasma was separated, and the concentration of ATG in plasma was determined by LC-MS.
Before the test, the rats were fasted for 12 hours, with free access to water, and were fed 2 hours after administration.
Blood sampling time points: 0.5, 1.0, 2.0, 4.0, 6.0, 8.0 and 12 h after administration by gastric gavage.
0.5 mL venous blood was taken from the posterior venous plexus of the rat's eyeball at the above set time points, put in a heparinized tube, centrifuged for 5 min at 11000 rpm to separate the plasma, and froze in a refrigerator at −20° C.
200 μL acetonitrile was added into 100 μL plasma samples, vortex mixed for 1 min, and centrifuged for 5 min at 11000 rpm; all the supernatant was taken out and put in a 10 mL test tube, dried in an airflow at 40° C., dissolved in 100 μL acetonitrile-water (1:9, v/v), and 10 μL was taken for UPLC/Q-TOF MS analysis.

[2] = tested on: drosophila Alzheimer's disease model wherein humanized A342 was overexpressed; experiment: Pavlovian olfactory memory test, rescue of memory impairment in drosophila AD model; assay type: in vivo
Excerpt: A drosophila Alzheimer's disease model wherein humanized A342 was overexpressed (the model drosophila has significant learning and memory defects), was employed in the present invention to evaluate the effect of conjugate A04 in rescuing the learning and memory ability of the model drosophila.
Pavlovian olfactory memory platform was improved from the literatures (see Tully, T. et al., Classical conditioning and retention in normal and mutant Drosophila melanogaster. (1985) J. Comp. Physiol. A 157: 263-277; Tully, T. et al., Genetic dissection of consolidated memory in Drosophila. (1994) Cell 79: 35-47; Yin, J. C. et al., Induction of a dominant negative CREB transgene specifically blocks long-term memory in Drosophila. (1994) Cell 79: 49-58). The learning and memory test was performed in a behavior room having a constant temperature and humidity (25° C. and 70% relative humidity). The test comprises two stages:
training stage: about a hundred drosophilas were placed into a training tube covered with copper net inside, and the drosophilas sequentially smelt two odors (octanol (OCT) and methylcyclohexanol (MCH)). Each odor lasted for 1 minute, and after each of the odors, 45 seconds of fresh air were passed through. The drosophilas were subjected to 1 minute of electric shock only when it smelt the first odor. Such a set of procedures constituted a training cycle. In order to avoid the natural preference of the drosophilas for odors, one tube of the drosophilas smelt OCT first and then received an electric shock at each data point, while the other tube of the drosophilas smelt MCH first and then received an electric shock, and the mean value of the test results of the 2 tubes of drosophilas was a data point.
test stage: the drosophilas were immediately transferred to the selection point of a T-maze after the training, and then they were made to choose between the containers of the two odors within two minutes. After 2 minutes, the numbers of drosophilas in different containers were respectively counted, and the performance index (PI) was calculated. […]

[3] = tested on: APP/PS1 transgenic AD model mice; experiment: Morris water maze test, memory impairment of APP/PS1 transgenic AD model mice; assay type: in vivo; settings: 50 mg/kg/day by gastric gavage for 60 days, versus solvent-treated transgenic mice, FIG. 3
Description: In the present invention, conjugate A04 was administered by gastric gavage to APP/PS1 transgenic AD model mice, and then the effect of conjugate A04 on the memory impairment of transgenic AD model mice was detected through the classic Morris water maze test.
In this experiment, APP/PS1 double transgenic AD model mice, which developed Aβ deposition when they were about 6 months old, and had impairment on the space memory when they were about 7 months old, were employed. Therefore, in this experiment, the impairment on the space memory of the mice was further detected via the water maze test, and at the same time, whether conjugate A04 has a therapeutic or improving effect on the memory impairment was evaluated.
1) Identification of APP/PS1 double transgenic AD model mice: the mice's tail was snipped off, then the gene sequence of APP/PS1 in mice was identified by PCR. The wild type C57 (B6C3) mice were used as the negative control mice. […]
3) Morris water maze test: a mixture of water and fresh milk at a temperature of 19-20° C. was injected into a white round pool with a diameter of 120 centimeters daily in the test. […] The motion track and speed of the mice were automatically recorded by Anymaze and the matched camera. The average time of searching the platform in the four tests per day was recorded as the time for searching the platform on that day (latent period). […]

oral bioavailability ([1]; according to further investigations of the present inventors): poor
ATG plasma concentration ([1]; rats, 20 mg/kg ATG by gastric gavage, lower detection limit 1.0 ng/ml): < 1.0 ng/mL
Structure (SMILES): COc1cc(C[C@H]2C(=O)OC[C@@H]2Cc2ccc(OC)c(OC)c2)ccc1O [ATG, arctigenin]

Structure (SMILES): COc1ccc(C[C@H]2COC(=O)[C@@H]2Cc2ccc(OC(=O)NCCNC(=O)[C@@H](N)COC(=O)NC34CC5CC(C)(CC(C)(C5)C3)C4)c(OC)c2)cc1OC [Conjugate A04]
rescue effect on the memory impairment of AD drosophilas compared with Mem ([2]; 100 μM, 7 days, FIG. 2): better rescue effect on the memory impairment of AD drosophilas than Mem
latent period in the Morris water maze test [3]: significantly shorter than that of the transgenic mice treated with the solvent

Structure (SMILES): CC12CC3CC(C)(C1)CC(N)(C3)C2 [Mem, memantine]
performance index (PI) ([2]; AD drosophilas, 100 μM in 4% sucrose, 4 hours per day for 7 days, AD negative control PI 41, genetic control 19 higher): 55
rescue effect ([2]; AD drosophilas, negative control group 0%, genetic control group 100%): more than 50%

Structure (SMILES): CC12CC3CC(C)(C1)CC(N)(C3)C2 [memantine hydrochloride]
latent period in the Morris water maze test [3]: no significant change compared with that of the transgenic AD model mice
